{
  "source": "paper PMC11246995",
  "about": "(Frontiers in Molecular Biosciences, 2024)",
  "key": {"[1]": {"system": "kidney tissues", "assay": "H&E histology of rotenone-treated kidney tissue sections", "assay_type": "in vivo", "details": "rat, single oral 2 mg/kg, 24 h", "protocol": "(§1) Rats were sacrificed 24 h after drug administration, and the kidney and liver organs were immediately removed, flash-frozen with liquid nitrogen, and stored at −80°C in a freezer for long-term storage. The administration and harvesting of organs were conducted by the Pharmalytics Corporation, accredited by the Food and Drug Administration (FDA, Philippines) for bioavailability and bioequivalence research. The animal study was reviewed and approved by the Institutional Animal Care and Use Committee (IACUC) Esteleydes Animal Laboratory and Research Facility and by the Bureau of Animal Industry—Animal Health and Welfare Division in the Philippines.\nMatrix was removed from the laser-ablated kidney sections using 95% EtOH for 20 s before rehydration with distilled water. The tissue-mounted glass slides were immersed in Harris hematoxylin solution (Sigma Aldrich, St. Louis, MO, United States) for 4 min and the excess was rinsed off with deionized water twice for 1 min. Hematoxylin differentiation of tissues was then performed using 0.5% acid alcohol for 10 s. The glass slides were rinsed using deionized water for 1 min followed by soaking in ammonia solution for 1 min and rinsing in deionized water twice for 1 min. Kidney sections were then counterstained using eosin Y solution (Sigma Aldrich, St. Louis, MO, United States) for 2 min. […]"}, "[2]": {"assay": "Qualitative MALDI MSI with ion mobility: spatial distribution of rotenone and its metabolites in kidney and liver", "assay_type": "in vivo", "details": "rat, single oral 2 mg/kg, 24 h", "description": "Matrix solution was applied to evenly coat the entire tissue surface using a HTX M5 Sprayer (HTX Technologies, LLC, Carrboro, NC, United States). The parameter settings were optimized to avoid metabolite delocalization and compromised spatial integrity. […]"}, "[3]": {"system": "rats", "details": "ref Jiang et al. (2017); cited from earlier work"}, "[4]": {"assay": "MALDI quantitative MSI (on-tissue qMSI) of rotenone in kidney tissue sections after a single oral dose", "assay_type": "in vivo", "details": "rat, single oral 2 mg/kg; for concentration at 24 h: kidney, po, 2 mg/kg", "protocol": "as §1\nAgarose-embedded kidney and liver organs were cut longitudinally at 5 µm thickness at −20°C using a cryostat (Leica CM 1950; Leica Biosystems, Germany), and thaw-mounted onto clean glass slides. The agarose-embedded kidney or liver was trimmed up to 500 µm to remove the agarose covering a portion of the organ. Subsequently, seven layers from the outer portion towards the middle were identified with a 100 µm distance between each layer. Representative cryosections were obtained from each identified layer of the untreated and drug-treated rat kidney. The agarose surrounding the kidney or liver cryosectioned tissue was manually removed before mounting onto a glass slide. Prior to matrix coating, the glass slides mounted with thin kidney cryosections were placed in a box and kept in a vacuum desiccator cabinet overnight ([Costa et al., 2013]; [Marques et al., 2014]; [Dalisay et al., 2015]; [Suarez et al., 2023]).\nMatrix solution was applied to evenly coat the entire tissue surface using a HTX M5 Sprayer (HTX Technologies, LLC, Carrboro, NC, United States). The parameter settings were optimized to avoid metabolite delocalization and compromised spatial integrity. The kidney sections were sprayed with a matrix solution of 2,5-dihydroxybenzoic acid (DHB) (Acros Organics, New Jersey, United States) at a concentration of 40 mg/mL in MeOH/H2O (1:1 v/v). Matrix solution was homogeneously applied for 6 passes in a criss-cross (CC) pattern with a nozzle temperature of 80°C, 1 mm track spacing, 1,250 mm/min nozzle speed, and 10 psi nitrogen pressure.\nThis method utilized an untreated kidney tissue sample which was sectioned and mounted on a clean glass slide. An on-tissue calibration curve method for qMSI was followed ([Kibbe and Muddiman, 2024]). […] Linear regression analysis was applied and inspected to confirm linearity. The untreated tissue was spotted with calibrants, allowed to dry, and coated with matrix (DHB 40 mg/mL in MeOH:H2O, 1:1 v/v). MALDI MSI data were acquired in 100 μm pixel resolution using MALDI SYNAPT XS (Waters Corporation, Manchester, United Kingdom) in positive mode. The experiment was performed with three replicates per calibrant in three independent trials. In order to address variations that may occur during data acquisition for qMSI, the ion signals were normalized to the total ion current (TIC). The intensities obtained for each concentration were plotted and approximated using the least-squares method. The limits of detection (LOD) and quantification (LOQ) were calculated by averaging the calibration curves, using signal-to-noise ratios (S/N) of 3:1 for LOD and 10:1 for LOQ. The validity of these limits was confirmed by applying serially diluted rotenone onto the tissue. In cases where the blank response has a standard deviation (SD) of zero, the SD of the lowest non-zero concentration was utilized. The SD value was divided by the slope of the calibration curve and multiplied by 3.3. The LOD was calculated using the formula LOD=3.3 x SDlowest non−zero concentration/slope of the calibration curve\nTo calculate the LOD and LOQ values in kidney tissue (pg/ng), the values were divided by the renal tissue density (ng/µL). […]"}, "[5]": {"details": "ref Udeani et al., 2001; Organization for Economic Cooperation and Development, 2020; cited from earlier work"}},
  "note": "Where two headings read alike, the source gives them in different places.",
  "data": [
    {"smiles": "C=C(C)[C@H]1Cc2c(ccc3c2O[C@@H]2COc4cc(OC)c(OC)cc4[C@@H]2C3=O)O1", "note": "[rotenone, Rotenone]", "values": [
      {"measurement": "histological alterations in kidney tissue sections stained with H&E", "setting": "[1]", "result": "no discernible histological alterations were detected"},
      {"measurement": "biotransformed metabolites of rotenone in kidney tissue sections (MALDI MSI)", "setting": "[2]; kidney", "result": "no biotransformed metabolites of rotenone were detected"},
      {"measurement": "biotransformed metabolites of rotenone in liver tissues (MALDI MSI)", "setting": "[2]; liver", "result": "no biotransformed metabolites"},
      {"measurement": "oral acute toxicity", "setting": "[3]", "result": 34.10, "unit": "mg/kg body weight"},
      {"measurement": "concentration at 24 h", "setting": "[4]; AVERAGE ± SD of 7 kidney tissue sections, read-out: Concentration", "result": "6.2 ± 3.8", "unit": "µg/mL"},
      {"measurement": "concentration at 24 h", "setting": "[4]; AVERAGE ± SD of 7 kidney tissue sections, read-out: Relative concentration per tissue section", "result": 5860, "unit": "ng/g"},
      {"measurement": "concentration at 24 h", "setting": "[4]; Kidney Tissue 1 (layer 1), read-out: Concentration", "result": 3.6, "unit": "µg/mL"},
      {"measurement": "concentration at 24 h", "setting": "[4]; Kidney Tissue 1 (layer 1), read-out: Relative concentration per tissue section", "result": 1650, "unit": "ng/g"},
      {"measurement": "concentration at 24 h", "setting": "[4]; Kidney Tissue 2 (layer 2), read-out: Concentration", "result": 2, "unit": "µg/mL"},
      {"measurement": "concentration at 24 h", "setting": "[4]; Kidney Tissue 2 (layer 2), read-out: Relative concentration per tissue section", "result": 1100, "unit": "ng/g"},
      {"measurement": "concentration at 24 h", "setting": "[4]; Kidney Tissue 3 (layer 3), read-out: Concentration", "result": 2.6, "unit": "µg/mL"},
      {"measurement": "concentration at 24 h", "setting": "[4]; Kidney Tissue 3 (layer 3), read-out: Relative concentration per tissue section", "result": 1910, "unit": "ng/g"},
      {"measurement": "concentration at 24 h", "setting": "[4]; Kidney Tissue 4 (layer 4), read-out: Concentration", "result": 7.2, "unit": "µg/mL"},
      {"measurement": "concentration at 24 h", "setting": "[4]; Kidney Tissue 4 (layer 4), read-out: Relative concentration per tissue section", "result": 5950, "unit": "ng/g"},
      {"measurement": "concentration at 24 h", "setting": "[4]; Kidney Tissue 5 (layer 5), read-out: Concentration", "result": 7, "unit": "µg/mL"},
      {"measurement": "concentration at 24 h", "setting": "[4]; Kidney Tissue 5 (layer 5), read-out: Relative concentration per tissue section", "result": 6420, "unit": "ng/g"},
      {"measurement": "concentration at 24 h", "setting": "[4]; Kidney Tissue 6 (layer 6), read-out: Concentration", "result": 8, "unit": "µg/mL"},
      {"measurement": "concentration at 24 h", "setting": "[4]; Kidney Tissue 6 (layer 6), read-out: Relative concentration per tissue section", "result": 9210, "unit": "ng/g"},
      {"measurement": "concentration at 24 h", "setting": "[4]; Kidney Tissue 7 (layer 7), read-out: Concentration", "result": 12.8, "unit": "µg/mL"},
      {"measurement": "concentration at 24 h", "setting": "[4]; Kidney Tissue 7 (layer 7), read-out: Relative concentration per tissue section", "result": 14700, "unit": "ng/g"},
      {"measurement": "Normalized Mass intensity by TIC", "setting": "[4]; 24 h, AVERAGE ± SD of 7 kidney tissue sections", "result": "0.0042 ± 0.0019"},
      {"measurement": "Normalized Mass intensity by TIC", "setting": "[4]; 24 h, Kidney Tissue 1 (layer 1)", "result": 0.0030},
      {"measurement": "Normalized Mass intensity by TIC", "setting": "[4]; 24 h, Kidney Tissue 2 (layer 2)", "result": 0.0022},
      {"measurement": "Normalized Mass intensity by TIC", "setting": "[4]; 24 h, Kidney Tissue 3 (layer 3)", "result": 0.0025},
      {"measurement": "Normalized Mass intensity by TIC", "setting": "[4]; 24 h, Kidney Tissue 4 (layer 4)", "result": 0.0048},
      {"measurement": "Normalized Mass intensity by TIC", "setting": "[4]; 24 h, Kidney Tissue 5 (layer 5)", "result": 0.0047},
      {"measurement": "Normalized Mass intensity by TIC", "setting": "[4]; 24 h, Kidney Tissue 6 (layer 6)", "result": 0.0052},
      {"measurement": "Normalized Mass intensity by TIC", "setting": "[4]; 24 h, Kidney Tissue 7 (layer 7)", "result": 0.0076},
      {"measurement": "Detected amount of rotenone drug in picograms per nanogram of tissue mass", "setting": "[4]; 24 h, range over seven kidney layers", "result": "0.0011 to 0.0147", "unit": "pg/ng"},
      {"measurement": "metabolic clearance rate", "setting": "[5]", "result": "approximately 100 mL/min/kg"}
    ]}
  ]
}
